Patent US5470830A, “Motilin-like polypeptides that inhibit gastrointestinal motor activity” (Ohmeda Pharmaceutical Products Division Inc., priority 1993, dated 1995)
Where a SMILES comes first, the peptide text is derived from it. [ ]: non-standard residue; d: D form. 3Pal = N[C@@H](Cc1cccnc1)C(=O)O

Columns and labels:
[1] = target: segments of rabbit duodenum (Oryctolagus cuniculus, UniProt G1T803); experiment: Rabbit duodenal smooth muscle strip tissue bath assay (contractile response); format: cell-based; details: contractility; negative logarithm of dose giving 50% of maximal response to motilin; compounds tested 10^-11 to 10^-4 M
Description: The experimental protocol consisted of an equilibration period of 1 hour: a challenge with 10^-4 M acetylcholine followed by a wash-out period; a cumulative dose-response curve of a compound with, at the end, the addition of 10^-7 M motilin; and finally 10^-4 M acetylcholine. If the final response to 10^-4 M acetylcholine differed by more than 5% from the initial response, the results were discarded.

[2] = target: T1, motilin receptor (Oryctolagus cuniculus, UniProt G1T803); experiment: Motilin receptor antagonism: contractile response of rabbit duodenum to motilin in presence of compound; format: cell-based
T1 construct: segments of rabbit duodenum; from tissue; host or cells: segments of rabbit duodenum
Description: To determine motilin receptor antagonism, the contractile response of segments of rabbit duodenum to motilin was determined isotonically in the tissue bath in the presence of a fixed concentration of the compound of interest. The experimental protocol consisted of an equilibration period of 1 hour; a challenge with 10^-4 M acetylcholine followed by a wash-out period; a cumulative motilin dose-response curve in the presence of the motilin receptor antagonist; and finally a challenge with 10^-4 M acetylcholine. If the final response to 10^-4 M acetylcholine differed by more than 5% from the initial response, the results were discarded. The point corresponding to 50% of the maximal response to motilin (Emax) was determined by fitting the equation
through the data points. The dose of motilin giving 50% of the response is expressed using its negative logarithm (pEC50). Compounds of interest were tested at concentrations of 10^-8 to 10^-5 M.

[3] = target: T2, motilin receptor (rabbit antral smooth muscle membranes) (Oryctolagus cuniculus, UniProt G1T803); experiment: Motilin receptor binding affinity: displacement of [125I-Tyr7,Nle13]motilin(porcine); details: negative logarithm of concentration displacing 50% of [125I-Tyr7,Nle13]motilin(porcine) from rabbit antral smooth muscle membranes; read-out: pIC50 (converted)
T2 construct: from tissue; host or cells: rabbit antral smooth muscle membranes
Description: The motilin receptor binding affinity of the peptides of this invention was determined by using the general procedure of Bormans, Peelers and Vantrappen, Regul. Pept., 15, 143-153 (1986). The ability of the peptides to displace [^125 I-Tyr^7,Nle^13 ]motilin(porcine) bound to rabbit antral smooth muscle membranes, was determined by testing twice, each time in duplicate, at concentrations ranging from 10^-11 to 10^-4 M. The concentration displacing 50% of the label (IC50) was determined by fitting the data to the equation describing displacement, assuming a single class of motilin receptors to which labeled and non-labeled motilin bind with equal affinity and non-cooperatively. Fitting was performed using the iterative least-squares procedure of the SAS-software package (SAS Institute, Inc., Cary, N.C., U.S.A.). […] The concentration displacing 50% of the label is expressed using its negative logarithm (pIC50).

T2 sequence (G1T803 1-400): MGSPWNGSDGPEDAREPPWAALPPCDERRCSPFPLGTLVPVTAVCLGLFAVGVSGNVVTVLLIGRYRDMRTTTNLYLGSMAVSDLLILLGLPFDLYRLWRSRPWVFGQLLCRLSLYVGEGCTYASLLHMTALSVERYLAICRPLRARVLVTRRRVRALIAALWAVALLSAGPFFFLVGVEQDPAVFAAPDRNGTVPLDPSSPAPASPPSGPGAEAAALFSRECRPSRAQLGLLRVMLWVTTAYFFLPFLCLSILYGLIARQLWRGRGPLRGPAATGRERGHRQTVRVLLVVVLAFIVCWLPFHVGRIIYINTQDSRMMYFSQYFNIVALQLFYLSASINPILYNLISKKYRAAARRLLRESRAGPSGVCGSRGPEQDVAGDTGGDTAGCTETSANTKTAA
Sequence of segments of rabbit duodenum (G1T803 1-400): as above
T1 sequence (G1T803 1-400): as above

Compound | pEC50 [1] | block of the full contractile response to motilin ([2]; compound at 10^-5 M) | shift of the dose-response curve of motilin ([2]; compound at 10^-6 M) | IC50 [3] [nM]
CC[C@H](C)[C@H](NC(=O)[C@H](Cc1ccccc1)NC(=O)[C@@H](NC(=O)[C@@H](N)Cc1ccccc1)C(C)C)C(=O)N[C@@H](Cc1ccccc1)C(=O)N[C@H](C(=O)N[C@@H](Cc1ccc(O)cc1)C(=O)NCC(=O)N[C@@H](CCC(=O)O)C(=O)N[C@@H](CC(C)C)C(=O)N[C@@H](CCC(N)=O)C(=O)N[C@@H](CCCNC(=N)N)C(=O)N[C@@H](CC(C)C)C(=O)N[C@H](CCC(N)=O)C(N)=O)[C@@H](C)O [H-Phe-Val-Phe-Ile-Phe-Thr-Tyr-Gly-Glu-Leu-Gln-Arg-Leu-D-Gln-NH2] (H-FVFIFTYGELQRL[dQ]-NH2) | < 4.5 | – | – | 0.977
CC[C@H](C)[C@H](NC(=O)[C@H](Cc1cccnc1)NC(=O)[C@@H](NC(=O)[C@@H](N)Cc1ccccc1)C(C)C)C(=O)N[C@@H](Cc1ccccc1)C(=O)N[C@H](C(=O)N[C@@H](Cc1ccc(O)cc1)C(=O)NCC(=O)N[C@@H](CCC(=O)O)C(=O)N[C@@H](CC(C)C)C(=O)N[C@@H](CCC(N)=O)C(=O)N[C@@H](CCCNC(=N)N)C(=O)N[C@@H](CC(C)C)C(=O)N[C@@H](CCC(N)=O)C(=O)O)[C@@H](C)O [[Pal^3, Leu^13]pMOT(1-14), H-Phe-Val-Pal-Ile-Phe-Thr-Tyr-Gly-Glu-Leu-Gln-Arg-Leu-Gln-OH] (H-FV[3Pal]IFTYGELQRLQ-OH) | < 4.5 | – | – | 158
CC[C@H](C)[C@H](NC(=O)[C@@H](Cc1ccccc1)NC(=O)[C@@H](NC(=O)[C@@H](N)Cc1ccccc1)C(C)C)C(=O)N[C@@H](Cc1ccccc1)C(=O)N[C@H](C(=O)N[C@@H](Cc1ccc(O)cc1)C(=O)NCC(=O)N[C@@H](CCC(=O)O)C(=O)N[C@@H](CC(C)C)C(=O)N[C@@H](CCC(N)=O)C(=O)N[C@@H](CCCNC(=N)N)C(=O)N[C@@H](CC(C)C)C(=O)N[C@@H](CCC(N)=O)C(=O)O)[C@@H](C)O [[D-Phe^3, Leu^13]pMOT(1-14), H-Phe-Val-D-Phe-Ile-Phe-Thr-Tyr-Gly-Glu-Leu-Gln-Arg-Leu-Gln-OH] (H-FV[dF]IFTYGELQRLQ-OH) | < 4.5 | – | – | 8.13

Results, then the compound that gave them:

pEC50 [1] | block of the full contractile response to motilin ([2]; compound at 10^-5 M) | shift of the dose-response curve of motilin ([2]; compound at 10^-6 M) | IC50 [3] [nM] | Compound
< 4.5 | completely blocked | shifted by about one log unit | 16.2 | H-FVFIFTYGELQRLQ-OH [[Phe^3, Leu^13]pMOT(1-14), H-Phe-Val-Phe-Ile-Phe-Thr-Tyr-Gly-Glu-Leu-Gln-Arg-Leu-Gln-OH]
< 4.5 | – | – | 15.8 | H-FVFIATYGELQRLQ-OH [[Phe^3, Ala^5, Leu^13]pMOT(1-14), H-Phe-Val-Phe-Ile-Ala-Thr-Tyr-Gly-Glu-Leu-Gln-Arg-Leu-Gln-OH]
